Earlier results as cited in patent US9006270B2, “Polymorphs of (S)-pyrrolidine-1,2-dicarboxylic acid 2-amide 1-({4-methyl-5-[2-(2,2,2-trifluoro-1,1-dimethyl-ethyl)-pyridin-4-yl]-thiazol-2-yl}-amide” (Novartis AG, priority 2011, dated 2015).

System: phosphatidylinositol 3-kinase (PI3K)
Conditions: described in WO 2010/029082

- activity against the phosphatidylinositol 3-kinase (PI3K): demonstrated activity
Compound: Cc1nc(NC(=O)N2CCC[C@H]2C(N)=O)sc1-c1ccnc(C(C)(C)C(F)(F)F)c1 [Compound I, (S)-pyrrolidine-1,2-dicarboxylic acid 2-amide 1-(4-methyl-5-[2-(2,2,2-trifluoro-1,1-dimethyl-ethyl)-pyridin-4-yl]-thiazol-2-yl)-amide]
